Measured values taken from patent publication US9693556B2, “Herbicidal pyridazinone derivatives” (SYNGENTA LIMITED, priority 2011, dated 2017).

Tests used:
Assay type in all cases: in vivo
[1] = system: Ipomoea hederacea (IPOHE); assay: Pre-emergence herbicidal glasshouse test on Ipomoea hederacea; settings: pre-emergence, 1000 g/h, evaluated after 13 days; for herbicidal damage, PRE Application IPOHE: five point scale
Summary of the method: (§1)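 Application rate 1000 g/h, formulated in acetone/water (50:50) with 0.5% Tween 20 and sprayed onto pots sown 1 day (pre-emergence) or 8 days (post-emergence) earlier. Evaluation at 13 days rated damage from 1 (0-19%) to 5 (80-100%).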

Setaria faberi (SETFA) [2] = assay: Pre-emergence herbicidal glasshouse test on Setaria faberi; settings: pre-emergence, 1000 g/h, evaluated after 13 days; for herbicidal damage, PRE Application SETFA: five point scale
Summary of the method: as §1

[3] = system: Echinochloa crus-galli (ECHCG); assay: Post-emergence herbicidal glasshouse test on Echinochloa crus-galli; settings: post-emergence, 1000 g/h, evaluated after 13 days; for herbicidal damage, POST Application ECHCG: five point scale
Summary of the method: as §1

[4] = system: Ipomoea hederacea (IPOHE); assay: Post-emergence herbicidal glasshouse test on Ipomoea hederacea; settings: post-emergence, 1000 g/h, evaluated after 13 days; for herbicidal damage, POST Application IPOHE: five point scale
Summary of the method: as §1

[5] = system: Amaranthus retoflexus (AMARE); assay: Pre-emergence herbicidal glasshouse test on Amaranthus retoflexus; settings: pre-emergence, 1000 g/h, evaluated after 13 days; for herbicidal damage, PRE Application AMARE: five point scale
Summary of the method: as §1

Setaria faberi (SETFA) [6] = assay: Post-emergence herbicidal glasshouse test on Setaria faberi; settings: post-emergence, 1000 g/h, evaluated after 13 days; for herbicidal damage, POST Application SETFA: five point scale
Summary of the method: as §1

Solanum nigrum (SOLNI) [7] = assay: Pre-emergence herbicidal glasshouse test on Solanum nigrum; settings: pre-emergence, 1000 g/h, evaluated after 13 days; for herbicidal damage, PRE Application SOLNI: five point scale
Summary of the method: as §1

[8] = system: Alopecurus myosuroides (ALOMY); assay: Post-emergence herbicidal glasshouse test on Alopecurus myosuroides; settings: post-emergence, 1000 g/h, evaluated after 13 days; for herbicidal damage, POST Application ALOMY: five point scale
Summary of the method: as §1

[9] = system: Echinochloa crus-galli (ECHCG); assay: Pre-emergence herbicidal glasshouse test on Echinochloa crus-galli; settings: pre-emergence, 1000 g/h, evaluated after 13 days; for herbicidal damage, PRE Application ECHCG: five point scale
Summary of the method: as §1

[10] = system: Alopecurus myosuroides (ALOMY); assay: Pre-emergence herbicidal glasshouse test on Alopecurus myosuroides; settings: pre-emergence, 1000 g/h, evaluated after 13 days; for herbicidal damage, PRE Application ALOMY: five point scale
Summary of the method: as §1

Solanum nigrum (SOLNI) [11] = assay: Post-emergence herbicidal glasshouse test on Solanum nigrum; settings: post-emergence, 1000 g/h, evaluated after 13 days; for herbicidal damage, POST Application SOLNI: five point scale
Summary of the method: as §1

[12] = system: Amaranthus retoflexus (AMARE); assay: Post-emergence herbicidal glasshouse test on Amaranthus retoflexus; settings: post-emergence, 1000 g/h, evaluated after 13 days; for herbicidal damage, POST Application AMARE: five point scale
Summary of the method: as §1

Row | Structure (SMILES) | herbicidal damage, PRE Application IPOHE [1] | herbicidal damage, PRE Application SETFA (Setaria faberi (SETFA) [2]) | herbicidal damage, POST Application ECHCG [3] | herbicidal damage, POST Application IPOHE [4] | herbicidal damage, PRE Application AMARE [5] | herbicidal damage, POST Application SETFA (Setaria faberi (SETFA) [6]) | herbicidal damage, PRE Application SOLNI (Solanum nigrum (SOLNI) [7]) | herbicidal damage, POST Application ALOMY [8] | PRE Application IPOHE herbicidal damage (five point scale) [1] | PRE Application SETFA herbicidal damage (five point scale) (Setaria faberi (SETFA) [2]) | POST Application ECHCG herbicidal damage (five point scale) [3] | POST Application IPOHE herbicidal damage (five point scale) [4] | PRE Application AMARE herbicidal damage (five point scale) [5] | POST Application SETFA herbicidal damage (five point scale) (Setaria faberi (SETFA) [6]) | PRE Application SOLNI herbicidal damage (five point scale) (Solanum nigrum (SOLNI) [7]) | POST Application ALOMY herbicidal damage (five point scale) [8] | PRE Application ECHCG herbicidal damage (five point scale) [9] | PRE Application ALOMY herbicidal damage (five point scale) [10] | POST Application SOLNI herbicidal damage (five point scale) (Solanum nigrum (SOLNI) [11]) | POST Application AMARE herbicidal damage (five point scale) [12] | further results
1 | Cn1ncc(-c2cc(Br)c(Br)cc2S(C)(=O)=O)c(O)c1=O [Compound 1.160] | 2 (2=20-39% damage) | 1 (1=0-19% damage) | 5 (5=80-100% damage) | 5 (5=80-100% damage) | 5 (5=80-100% damage) | 4 (4=60-79% damage) | 4 (4=60-79% damage) | 3 (3=40-59% damage) | – | – | – | – | – | – | – | – | – | – | – | – | herbicidal damage, PRE Application ECHCG [9]: 5 (5=80-100% damage); herbicidal damage, PRE Application ALOMY [10]: 1 (1=0-19% damage); herbicidal damage, POST Application SOLNI (Solanum nigrum (SOLNI) [11]): 5 (5=80-100% damage); herbicidal damage, POST Application AMARE [12]: 5 (5=80-100% damage)
2 | Cn1ncc(-c2c(S(C)(=O)=O)ccc(Br)c2Br)c(O)c1=O [Compound 1.161] | 1 (1=0-19% damage) | 1 (1=0-19% damage) | 4 (4=60-79% damage) | 2 (2=20-39% damage) | 3 (3=40-59% damage) | 4 (4=60-79% damage) | 1 (1=0-19% damage) | 3 (3=40-59% damage) | – | – | – | – | – | – | – | – | – | – | – | – | herbicidal damage, PRE Application ECHCG [9]: 1 (1=0-19% damage); herbicidal damage, PRE Application ALOMY [10]: 1 (1=0-19% damage); herbicidal damage, POST Application SOLNI (Solanum nigrum (SOLNI) [11]): 4 (4=60-79% damage); herbicidal damage, POST Application AMARE [12]: 5 (5=80-100% damage)
3 | C#CCn1ncc(-c2ccc(S(C)(=O)=O)c(C3=NOCC3)c2C)c(O)c1=O [Compound 1.163] | 4 (4=60-79% damage) | 5 (5=80-100% damage) | 5 (5=80-100% damage) | 5 (5=80-100% damage) | 5 (5=80-100% damage) | 5 (5=80-100% damage) | 5 (5=80-100% damage) | 5 (5=80-100% damage) | – | – | – | – | – | – | – | – | – | – | – | – | herbicidal damage, PRE Application ECHCG [9]: 5 (5=80-100% damage); herbicidal damage, PRE Application ALOMY [10]: 5 (5=80-100% damage); herbicidal damage, POST Application SOLNI (Solanum nigrum (SOLNI) [11]): 5 (5=80-100% damage); herbicidal damage, POST Application AMARE [12]: 5 (5=80-100% damage)
4 | Cn1ncc(-c2cc3cc(N4CCOCC4)cnc3nc2C(F)(F)F)c(O)c1=O [Compound 1.164] | 4 (4=60-79% damage) | 2 (2=20-39% damage) | 5 (5=80-100% damage) | 5 (5=80-100% damage) | 3 (3=40-59% damage) | 5 (5=80-100% damage) | 2 (2=20-39% damage) | 1 (1=0-19% damage) | – | – | – | – | – | – | – | – | – | – | – | – | herbicidal damage, PRE Application ECHCG [9]: 4 (4=60-79% damage); herbicidal damage, PRE Application ALOMY [10]: 1 (1=0-19% damage); herbicidal damage, POST Application SOLNI (Solanum nigrum (SOLNI) [11]): 5 (5=80-100% damage); herbicidal damage, POST Application AMARE [12]: 5 (5=80-100% damage)
5 | C=CCn1ncc(-c2ccccc2S(C)(=O)=O)c(O)c1=O [Compound 2.001] | – | – | – | – | – | – | – | – | 5 (5=80-100% damage) | 5 (5=80-100% damage) | 5 (5=80-100% damage) | 5 (5=80-100% damage) | 5 (5=80-100% damage) | 5 (5=80-100% damage) | 5 (5=80-100% damage) | 5 (5=80-100% damage) | 5 (5=80-100% damage) | 5 (5=80-100% damage) | 5 (5=80-100% damage) | 5 (5=80-100% damage) | –
6 | CC[S+]([O-])c1ccccc1-c1cnn(COC)c(=O)c1O (stereo not drawn) [Compound 2.003] | – | – | – | – | – | – | – | – | 1 (1=0-19% damage) | 4 (4=60-79% damage) | 5 (5=80-100% damage) | 4 (4=60-79% damage) | 5 (5=80-100% damage) | 4 (4=60-79% damage) | 1 (1=0-19% damage) | 3 (3=40-59% damage) | 4 (4=60-79% damage) | 3 (3=40-59% damage) | 5 (5=80-100% damage) | 5 (5=80-100% damage) | –
7 | CCS(=O)(=O)c1ccccc1-c1cnn(COC)c(=O)c1O [Compound 2.004] | – | – | – | – | – | – | – | – | 4 (4=60-79% damage) | 5 (5=80-100% damage) | 5 (5=80-100% damage) | 5 (5=80-100% damage) | 5 (5=80-100% damage) | 5 (5=80-100% damage) | 5 (5=80-100% damage) | 3 (3=40-59% damage) | 5 (5=80-100% damage) | 5 (5=80-100% damage) | 5 (5=80-100% damage) | 5 (5=80-100% damage) | –
8 | COCn1ncc(-c2ccc(Cl)cc2S(C)(=O)=O)c(O)c1=O [Compound 2.005] | – | – | – | – | – | – | – | – | 5 (5=80-100% damage) | 5 (5=80-100% damage) | 5 (5=80-100% damage) | 5 (5=80-100% damage) | 5 (5=80-100% damage) | 5 (5=80-100% damage) | 5 (5=80-100% damage) | 5 (5=80-100% damage) | 5 (5=80-100% damage) | 5 (5=80-100% damage) | 5 (5=80-100% damage) | 5 (5=80-100% damage) | –
9 | COCn1ncc(-c2ccc(F)cc2S(C)(=O)=O)c(O)c1=O [Compound 2.006] | – | – | – | – | – | – | – | – | 5 (5=80-100% damage) | 5 (5=80-100% damage) | 5 (5=80-100% damage) | 5 (5=80-100% damage) | 5 (5=80-100% damage) | 5 (5=80-100% damage) | 5 (5=80-100% damage) | 5 (5=80-100% damage) | 5 (5=80-100% damage) | 5 (5=80-100% damage) | 5 (5=80-100% damage) | 5 (5=80-100% damage) | –
10 | COc1ccc(Cn2ncc(-c3ccc(Cl)cc3S(C)(=O)=O)c(O)c2=O)cc1 [Compound 2.008] | – | – | – | – | – | – | – | – | 3 (3=40-59% damage) | 2 (2=20-39% damage) | 5 (5=80-100% damage) | 5 (5=80-100% damage) | 5 (5=80-100% damage) | 5 (5=80-100% damage) | 5 (5=80-100% damage) | 3 (3=40-59% damage) | 5 (5=80-100% damage) | 4 (4=60-79% damage) | 5 (5=80-100% damage) | 5 (5=80-100% damage) | –
11 | C#Cn1ncc(-c2ccc(C(F)(F)F)cc2S(C)(=O)=O)c(O)c1=O [Compound 2.010] | – | – | – | – | – | – | – | – | 5 (5=80-100% damage) | 5 (5=80-100% damage) | 5 (5=80-100% damage) | 5 (5=80-100% damage) | 5 (5=80-100% damage) | 5 (5=80-100% damage) | 5 (5=80-100% damage) | 5 (5=80-100% damage) | 5 (5=80-100% damage) | 5 (5=80-100% damage) | 5 (5=80-100% damage) | 5 (5=80-100% damage) | –
